Assay results from patent publication US20250313533A1, “QUINOLINE CARBOXYLIC ACID ESTER COMPOUND AND PREPARATION METHOD AND USE THEREOF” (priority 2019, published 2025).

Legend:
[1] = test system: pathogenic bacteria causing bacterial angular leaf spot in cucumbers; experiment: In vitro bactericidal activity, bacterial angular leaf spot in cucumbers; assay type: cell-based, pseudomonas; conditions: read-out: inhibitory rate; for inhibition at 1 ppm: dosage 1 ppm; for inhibition at 5 ppm: dosage 5 ppm
[2] = test system: pathogenic bacteria causing bacterial wilt in tobacco; experiment: whole plant or invertebrate; assay type: cell-based, ralstonia; conditions: read-out: inhibitory rate
[3] = test system: pathogenic bacteria causing black shank in potatoes; experiment: In vitro bactericidal activity, black shank in potatoes; assay type: cell-based; conditions: read-out: inhibitory rate; for inhibition at 1 ppm: dosage 1 ppm; for inhibition at 5 ppm: dosage 5 ppm
[4] = test system: pathogenic bacteria causing stem rot in sweet potatoes; experiment: In vitro bactericidal activity, stem rot in sweet potatoes; assay type: cell-based, dikia; conditions: read-out: inhibitory rate; for inhibition at 1 ppm: dosage 1 ppm; for inhibition at 5 ppm: dosage 5 ppm
[5] = test system: pathogenic bacteria causing bacterial blight in rice; experiment: whole plant or invertebrate; assay type: cell-based, xanthomonas; conditions: read-out: inhibitory rate
[6] = test system: pathogenic bacteria causing fruit blotch in watermelons; experiment: In vitro bactericidal activity, fruit blotch in watermelons; assay type: cell-based, acidovorax; conditions: read-out: inhibitory rate; for inhibition at 1 ppm: dosage 1 ppm; for inhibition at 5 ppm: dosage 5 ppm
[7] = test system: pathogenic bacteria causing black rot in Chinese cabbages; experiment: In vitro bactericidal activity, black rot in Chinese cabbages; assay type: cell-based, xanthomonas; conditions: Xanthomonas, read-out: inhibitory rate; for inhibition at 1 ppm: dosage 1 ppm; for inhibition at 5 ppm: dosage 5 ppm
[8] = test system: pathogenic bacteria causing bacterial wilt in cassava; experiment: organism not typed; assay type: cell-based; conditions: read-out: inhibitory rate
[9] = test system: pathogenic bacteria causing fire blight in pears; experiment: In vitro bactericidal activity, fire blight in pears; assay type: cell-based, erwinia; conditions: Erwinia, read-out: inhibitory rate; for inhibition at 1 ppm: dosage 1 ppm; for inhibition at 5 ppm: dosage 5 ppm
black shank in potatoes = experiment: Living crops in vivo protective activity, potatoes (root irrigation); conditions: Solanum tuberosum, read-out: efficacy against black shank in potatoes; for pest or weed control at 5 ppm: dosage 5 ppm; for pest or weed control at 10 ppm: dosage 10 ppm
Method: Root irrigation was carried out on the potatoes for tests according to the designed concentration of the agents. The dosage for each plant was 200 mL and was kept consistent (also for the control). The black shank bacteria were inoculated on the second day after the application. The results were investigated according to the disease condition.

[10] = test system: indoor potted cucumber seedlings; experiment: Effect of improving growth and development of crops; assay type: in vivo; set-up: Rate of growth rate increase (%): concentration or dose not given beside the values; conditions: versus blank control; for Rate of chlorophyll content increase (%) / Rate of leaf area increase (%): 14 days after application; for Rate of growth rate increase (%): plant height 14 days after application; for Rate of leaf area increase (%): second leaf
Outline: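 Readouts: rate of increase in height growth, leaf area and SPAD chlorophyll content. Measurements were made before compound application and again 14 days afterwards, with leaf area computed from second-leaf dimensions.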

cucumber seedlings = experiment: Safety for plant growth after application; assay type: in vivo; conditions: dosage 200 ppm
Outline: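 Read-outs are chlorophyll content, leaf area and the rate of increase in plant height, all measured on cucumber seedlings kept in pots indoors after application.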

[11] = test system: bacterial wilt in tobacco; experiment: whole plant or invertebrate; conditions: Nicotiana tabacum, read-out: efficacy against bacterial wilt in tobacco
[12] = test system: stem rot in sweet potatoes; experiment: whole plant or invertebrate; conditions: read-out: efficacy against stem rot in sweet potatoes
bacterial blight in rice = experiment: whole plant or invertebrate; conditions: Oryza sativa, read-out: efficacy against bacterial blight in rice
[13] = test system: fruit blotch in watermelons; experiment: whole plant or invertebrate; conditions: read-out: efficacy against fruit blotch in watermelons
[14] = test system: soft rot in Chinese cabbages; experiment: whole plant or invertebrate; conditions: 48 h, read-out: efficacy against soft rot in Chinese cabbages

| Structure (SMILES) | inhibition at 1 ppm [1] [%] | inhibition at 5 ppm [1] [%] | inhibition at 1 ppm [2] [%] | inhibition at 5 ppm [2] [%] | inhibition at 1 ppm [3] [%] | inhibition at 5 ppm [3] [%] | inhibition at 1 ppm [4] [%] | inhibition at 5 ppm [4] [%] | inhibition at 1 ppm [5] [%] | inhibition at 5 ppm [5] [%] | inhibition at 1 ppm [6] [%] | inhibition at 5 ppm [6] [%] | inhibition at 1 ppm [7] [%] | inhibition at 5 ppm [7] [%] | inhibition at 1 ppm [8] [%] | inhibition at 5 ppm [8] [%] | inhibition at 1 ppm [9] [%] | inhibition at 5 ppm [9] [%] | pest or weed control at 5 ppm (black shank in potatoes) [%] | pest or weed control at 10 ppm (black shank in potatoes) [%] | further results |
| --- | --- | --- | --- | --- | --- | --- | --- | --- | --- | --- | --- | --- | --- | --- | --- | --- | --- | --- | --- | --- | --- |
| COCCOC(=O)c1cn(C2CC2)c2cc(OC3CCCC3)c(F)cc2c1=O [Compound 296] | ≥ 90 | ≥ 90 | ≥ 90 | ≥ 90 | ≥ 90 | ≥ 90 | ≥ 90 | ≥ 90 | ≥ 90 | ≥ 90 | ≥ 90 | ≥ 90 | ≥ 90 | ≥ 90 | ≥ 90 | ≥ 90 | ≥ 90 | ≥ 90 | ≥ 90 | ≥ 90 | Rate of chlorophyll content increase (%) [10]: 16%; Rate of growth rate increase (%) [10]: 12%; Rate of leaf area increase (%) [10]: 11%; safety for plant growth (discoloration, necrosis, wilt, malformation) (cucumber seedlings): safe for plant growth; pest or weed control at 5 ppm [11]: ≥ 90%; pest or weed control at 10 ppm [11]: ≥ 90%; pest or weed control at 5 ppm [12]: ≥ 90%; pest or weed control at 10 ppm [12]: ≥ 90%; pest or weed control at 5 ppm (bacterial blight in rice): ≥ 90%; pest or weed control at 10 ppm (bacterial blight in rice): ≥ 90%; pest or weed control at 5 ppm [13]: ≥ 90%; pest or weed control at 10 ppm [13]: ≥ 90%; pest or weed control at 5 ppm [14]: ≥ 90%; pest or weed control at 10 ppm [14]: ≥ 90% |
| CCOc1cc2c(cc1F)c(=O)c(C(=O)OCCOC1CCCC1)cn2C1CC1 [Compound 307] | ≥ 90 | ≥ 90 | ≥ 90 | ≥ 90 | ≥ 90 | ≥ 90 | ≥ 90 | ≥ 90 | ≥ 90 | ≥ 90 | ≥ 90 | ≥ 90 | ≥ 90 | ≥ 90 | ≥ 90 | ≥ 90 | ≥ 90 | ≥ 90 | ≥ 90 | ≥ 90 | Rate of chlorophyll content increase (%) [10]: 11%; Rate of growth rate increase (%) [10]: 9%; Rate of leaf area increase (%) [10]: 12%; safety for plant growth (discoloration, necrosis, wilt, malformation) (cucumber seedlings): safe for plant growth; pest or weed control at 5 ppm [11]: ≥ 90%; pest or weed control at 10 ppm [11]: ≥ 90%; pest or weed control at 5 ppm [12]: ≥ 90%; pest or weed control at 10 ppm [12]: ≥ 90%; pest or weed control at 5 ppm (bacterial blight in rice): ≥ 90%; pest or weed control at 10 ppm (bacterial blight in rice): ≥ 90%; pest or weed control at 5 ppm [13]: ≥ 90%; pest or weed control at 10 ppm [13]: ≥ 90%; pest or weed control at 5 ppm [14]: ≥ 90%; pest or weed control at 10 ppm [14]: ≥ 90% |
| CCOc1cc2c(cc1F)c(=O)c(C(=O)OCCCO)cn2C1CC1 [Compound 309] | ≥ 90 | ≥ 90 | ≥ 90 | ≥ 90 | ≥ 90 | ≥ 90 | ≥ 90 | ≥ 90 | ≥ 90 | ≥ 90 | ≥ 90 | ≥ 90 | ≥ 90 | ≥ 90 | ≥ 90 | ≥ 90 | ≥ 90 | ≥ 90 | ≥ 90 | ≥ 90 | Rate of chlorophyll content increase (%) [10]: 16%; Rate of growth rate increase (%) [10]: 12%; Rate of leaf area increase (%) [10]: 15%; safety for plant growth (discoloration, necrosis, wilt, malformation) (cucumber seedlings): safe for plant growth; pest or weed control at 5 ppm [11]: ≥ 90%; pest or weed control at 10 ppm [11]: ≥ 90%; pest or weed control at 5 ppm [12]: ≥ 90%; pest or weed control at 10 ppm [12]: ≥ 90%; pest or weed control at 5 ppm (bacterial blight in rice): ≥ 90%; pest or weed control at 10 ppm (bacterial blight in rice): ≥ 90%; pest or weed control at 5 ppm [13]: ≥ 90%; pest or weed control at 10 ppm [13]: ≥ 90%; pest or weed control at 5 ppm [14]: ≥ 90%; pest or weed control at 10 ppm [14]: ≥ 90% |
| CCOc1cc2c(cc1F)c(=O)c(C(=O)OCCCOC)cn2C1CC1 [Compound 315] | ≥ 90 | ≥ 90 | ≥ 90 | ≥ 90 | ≥ 90 | ≥ 90 | ≥ 90 | ≥ 90 | ≥ 90 | ≥ 90 | ≥ 90 | ≥ 90 | ≥ 90 | ≥ 90 | ≥ 90 | ≥ 90 | ≥ 90 | ≥ 90 | ≥ 90 | ≥ 90 | Rate of chlorophyll content increase (%) [10]: 12%; Rate of growth rate increase (%) [10]: 9%; Rate of leaf area increase (%) [10]: 11%; safety for plant growth (discoloration, necrosis, wilt, malformation) (cucumber seedlings): safe for plant growth; pest or weed control at 5 ppm [11]: ≥ 90%; pest or weed control at 10 ppm [11]: ≥ 90%; pest or weed control at 5 ppm [12]: ≥ 90%; pest or weed control at 10 ppm [12]: ≥ 90%; pest or weed control at 5 ppm (bacterial blight in rice): ≥ 90%; pest or weed control at 10 ppm (bacterial blight in rice): ≥ 90%; pest or weed control at 5 ppm [13]: ≥ 90%; pest or weed control at 10 ppm [13]: ≥ 90%; pest or weed control at 5 ppm [14]: ≥ 90%; pest or weed control at 10 ppm [14]: ≥ 90% |
| COc1cc2c(cc1F)c(=O)c(C(=O)OCCCO)cn2C1CC1 [Compound 320] | ≥ 90 | ≥ 90 | ≥ 90 | ≥ 90 | ≥ 90 | ≥ 90 | ≥ 90 | ≥ 90 | ≥ 90 | ≥ 90 | ≥ 90 | ≥ 90 | ≥ 90 | ≥ 90 | ≥ 90 | ≥ 90 | ≥ 90 | ≥ 90 | ≥ 90 | ≥ 90 | Rate of chlorophyll content increase (%) [10]: 16%; Rate of growth rate increase (%) [10]: 14%; Rate of leaf area increase (%) [10]: 9%; safety for plant growth (discoloration, necrosis, wilt, malformation) (cucumber seedlings): safe for plant growth; pest or weed control at 5 ppm [11]: ≥ 90%; pest or weed control at 10 ppm [11]: ≥ 90%; pest or weed control at 5 ppm [12]: ≥ 90%; pest or weed control at 10 ppm [12]: ≥ 90%; pest or weed control at 5 ppm (bacterial blight in rice): ≥ 90%; pest or weed control at 10 ppm (bacterial blight in rice): ≥ 90%; pest or weed control at 5 ppm [13]: ≥ 90%; pest or weed control at 10 ppm [13]: ≥ 90%; pest or weed control at 5 ppm [14]: ≥ 90%; pest or weed control at 10 ppm [14]: ≥ 90% |
| COCCCOC(=O)c1cn(C2CC2)c2cc(OC)c(F)cc2c1=O [Compound 323] | ≥ 90 | ≥ 90 | ≥ 90 | ≥ 90 | ≥ 90 | ≥ 90 | ≥ 90 | ≥ 90 | ≥ 90 | ≥ 90 | ≥ 90 | ≥ 90 | ≥ 90 | ≥ 90 | ≥ 90 | ≥ 90 | ≥ 90 | ≥ 90 | ≥ 90 | ≥ 90 | Rate of chlorophyll content increase (%) [10]: 19%; Rate of growth rate increase (%) [10]: 13%; Rate of leaf area increase (%) [10]: 13%; safety for plant growth (discoloration, necrosis, wilt, malformation) (cucumber seedlings): safe for plant growth; pest or weed control at 5 ppm [11]: ≥ 90%; pest or weed control at 10 ppm [11]: ≥ 90%; pest or weed control at 5 ppm [12]: ≥ 90%; pest or weed control at 10 ppm [12]: ≥ 90%; pest or weed control at 5 ppm (bacterial blight in rice): ≥ 90%; pest or weed control at 10 ppm (bacterial blight in rice): ≥ 90%; pest or weed control at 5 ppm [13]: ≥ 90%; pest or weed control at 10 ppm [13]: ≥ 90%; pest or weed control at 5 ppm [14]: ≥ 90%; pest or weed control at 10 ppm [14]: ≥ 90% |
